Where two headings read alike, the source gives them in different places.
Legend:
Test in all cases: biochemical
Parameters in all cases: KINOMEscan scanMAX competition binding, DNA-tagged kinases, qPCR read-out, percent control at 300 nM
[1] = target: CAMK2D (Homo sapiens, UniProt Q13557)
[2] = target: T1, ABL1(Y253F)-phosphorylated (Homo sapiens, UniProt P00519, Y253F)
T1 construct: phosphorylated

[3] = target: PRKCE (Homo sapiens, UniProt Q02156)
[4] = target: CHEK2 (Homo sapiens, UniProt O96017)
[5] = target: T2, CDC2L1 (Homo sapiens, UniProt P21127)
T2 construct: gene CDK11B

[6] = target: T3, OSR1 (Homo sapiens, UniProt O95747)
T3 construct: gene OXSR1

[7] = target: TRPM6 (Homo sapiens, UniProt Q9BX84)
[8] = target: PKMYT1 (Homo sapiens, UniProt Q99640)
[9] = target: EGFR(E746-A750del) (Homo sapiens, UniProt P00533, DEL746-750)
[10] = target: T4, ERK4 (Homo sapiens, UniProt P31152)
T4 construct: gene MAPK4

[11] = target: T5, DRAK1 (Homo sapiens, UniProt Q9UEE5)
T5 construct: gene STK17A

[12] = target: TNNI3K (Homo sapiens, UniProt Q59H18)
[13] = target: T6, CTK (Homo sapiens, UniProt P42679)
T6 construct: gene MATK

[14] = target: T7, RSK4(Kin.Dom.1-N-terminal) (Homo sapiens, UniProt Q9UK32)
T7 construct: gene RPS6KA6; Kin.Dom.1-N-terminal

[15] = target: AKT2 (Homo sapiens, UniProt P31751)
[16] = target: MUSK (Homo sapiens, UniProt O15146)
[17] = target: T8, ABL1(H396P)-nonphosphorylated (Homo sapiens, UniProt P00519, H396P)
T8 construct: nonphosphorylated

[18] = target: MET(Y1235D) (Homo sapiens, UniProt P08581, Y1235D)
[19] = target: ULK3 (Homo sapiens, UniProt Q6PHR2)
[20] = target: KIT(V559D,V654A) (Homo sapiens, UniProt P10721, V559D/V654A)
[21] = target: ANKK1 (Homo sapiens, UniProt Q8NFD2)
[22] = target: T9, MLK2 (Homo sapiens, UniProt Q02779)
T9 construct: gene MAP3K10

[23] = target: T10, AMPK-alpha1 (Homo sapiens, UniProt Q13131)
T10 construct: gene PRKAA1

[24] = read-out: Percent control / Acalabrutinib
[25] = read-out: Percent control / Ibrutinib
[26] = read-out: Percent control / Tirabrutinib
[27] = read-out: Percent control / Zanubrutinib

T10 sequence (Q13131 whole entry): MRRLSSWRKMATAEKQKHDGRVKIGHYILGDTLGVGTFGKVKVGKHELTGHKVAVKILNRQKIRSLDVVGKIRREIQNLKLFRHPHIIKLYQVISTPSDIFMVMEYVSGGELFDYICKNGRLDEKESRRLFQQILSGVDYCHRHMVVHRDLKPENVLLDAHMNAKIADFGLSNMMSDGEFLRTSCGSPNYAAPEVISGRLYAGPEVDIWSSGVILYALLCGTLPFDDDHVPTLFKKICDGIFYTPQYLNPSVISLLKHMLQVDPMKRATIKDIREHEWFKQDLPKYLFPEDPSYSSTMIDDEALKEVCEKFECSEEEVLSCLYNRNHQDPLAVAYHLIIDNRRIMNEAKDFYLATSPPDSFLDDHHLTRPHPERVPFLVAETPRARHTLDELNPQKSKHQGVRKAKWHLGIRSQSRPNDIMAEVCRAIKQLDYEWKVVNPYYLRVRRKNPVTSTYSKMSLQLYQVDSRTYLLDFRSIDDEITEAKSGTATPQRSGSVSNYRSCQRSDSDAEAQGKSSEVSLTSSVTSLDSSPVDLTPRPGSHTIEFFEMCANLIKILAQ
TNNI3K, sequence (Q59H18 whole entry): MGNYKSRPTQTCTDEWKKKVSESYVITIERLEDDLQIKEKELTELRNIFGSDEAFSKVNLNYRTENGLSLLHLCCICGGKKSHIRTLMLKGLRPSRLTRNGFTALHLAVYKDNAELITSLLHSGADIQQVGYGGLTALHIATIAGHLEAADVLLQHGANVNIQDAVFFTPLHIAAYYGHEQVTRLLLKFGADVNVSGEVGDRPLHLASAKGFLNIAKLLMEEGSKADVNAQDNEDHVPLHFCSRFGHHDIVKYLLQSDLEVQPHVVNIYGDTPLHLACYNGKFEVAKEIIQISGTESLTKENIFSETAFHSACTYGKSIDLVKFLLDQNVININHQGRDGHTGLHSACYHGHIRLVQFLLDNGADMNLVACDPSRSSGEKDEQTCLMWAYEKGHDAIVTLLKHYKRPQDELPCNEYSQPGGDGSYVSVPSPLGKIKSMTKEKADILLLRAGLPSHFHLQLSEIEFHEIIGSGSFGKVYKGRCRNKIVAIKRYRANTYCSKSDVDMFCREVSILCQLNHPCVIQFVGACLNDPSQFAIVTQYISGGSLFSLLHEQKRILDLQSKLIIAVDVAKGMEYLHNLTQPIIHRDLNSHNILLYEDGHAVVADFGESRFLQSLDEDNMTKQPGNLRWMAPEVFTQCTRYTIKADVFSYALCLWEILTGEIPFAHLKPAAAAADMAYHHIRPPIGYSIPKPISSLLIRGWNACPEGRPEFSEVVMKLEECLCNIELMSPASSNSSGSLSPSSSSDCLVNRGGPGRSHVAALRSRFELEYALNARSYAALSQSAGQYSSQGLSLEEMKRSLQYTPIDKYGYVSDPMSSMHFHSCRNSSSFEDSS
PRKCE, sequence (Q02156 whole entry): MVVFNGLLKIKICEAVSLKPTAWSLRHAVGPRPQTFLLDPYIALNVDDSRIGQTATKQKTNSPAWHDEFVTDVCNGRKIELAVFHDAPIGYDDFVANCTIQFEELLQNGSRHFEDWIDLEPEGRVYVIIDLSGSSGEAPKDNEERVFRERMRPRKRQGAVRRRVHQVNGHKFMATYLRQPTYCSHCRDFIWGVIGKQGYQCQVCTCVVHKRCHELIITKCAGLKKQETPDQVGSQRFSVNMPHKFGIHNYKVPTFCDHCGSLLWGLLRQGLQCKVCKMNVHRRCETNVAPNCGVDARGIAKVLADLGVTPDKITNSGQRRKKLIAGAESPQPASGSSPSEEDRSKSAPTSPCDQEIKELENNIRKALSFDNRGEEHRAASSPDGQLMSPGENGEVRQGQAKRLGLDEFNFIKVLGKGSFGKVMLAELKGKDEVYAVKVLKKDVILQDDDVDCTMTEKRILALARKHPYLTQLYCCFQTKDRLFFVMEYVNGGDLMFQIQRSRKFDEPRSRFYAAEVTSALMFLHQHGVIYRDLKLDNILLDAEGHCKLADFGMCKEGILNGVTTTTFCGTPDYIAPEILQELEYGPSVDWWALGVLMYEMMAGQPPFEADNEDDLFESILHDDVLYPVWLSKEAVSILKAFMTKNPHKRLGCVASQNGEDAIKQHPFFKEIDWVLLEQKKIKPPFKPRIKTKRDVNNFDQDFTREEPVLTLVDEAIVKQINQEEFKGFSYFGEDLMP
T6 sequence (P42679 whole entry): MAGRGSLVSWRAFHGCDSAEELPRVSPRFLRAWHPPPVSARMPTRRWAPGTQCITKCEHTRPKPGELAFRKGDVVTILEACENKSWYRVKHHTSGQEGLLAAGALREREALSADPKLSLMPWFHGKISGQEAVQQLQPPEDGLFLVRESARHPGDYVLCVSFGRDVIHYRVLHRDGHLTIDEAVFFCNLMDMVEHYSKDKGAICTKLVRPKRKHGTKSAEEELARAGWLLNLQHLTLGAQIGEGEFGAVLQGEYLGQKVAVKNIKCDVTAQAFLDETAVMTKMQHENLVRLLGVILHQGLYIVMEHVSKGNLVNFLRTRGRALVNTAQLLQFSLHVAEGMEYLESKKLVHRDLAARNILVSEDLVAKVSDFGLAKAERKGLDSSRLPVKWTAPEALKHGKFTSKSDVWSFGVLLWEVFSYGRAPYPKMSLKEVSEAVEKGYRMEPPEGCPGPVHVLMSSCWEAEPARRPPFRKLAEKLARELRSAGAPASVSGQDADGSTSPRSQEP
T3 sequence (O95747 whole entry): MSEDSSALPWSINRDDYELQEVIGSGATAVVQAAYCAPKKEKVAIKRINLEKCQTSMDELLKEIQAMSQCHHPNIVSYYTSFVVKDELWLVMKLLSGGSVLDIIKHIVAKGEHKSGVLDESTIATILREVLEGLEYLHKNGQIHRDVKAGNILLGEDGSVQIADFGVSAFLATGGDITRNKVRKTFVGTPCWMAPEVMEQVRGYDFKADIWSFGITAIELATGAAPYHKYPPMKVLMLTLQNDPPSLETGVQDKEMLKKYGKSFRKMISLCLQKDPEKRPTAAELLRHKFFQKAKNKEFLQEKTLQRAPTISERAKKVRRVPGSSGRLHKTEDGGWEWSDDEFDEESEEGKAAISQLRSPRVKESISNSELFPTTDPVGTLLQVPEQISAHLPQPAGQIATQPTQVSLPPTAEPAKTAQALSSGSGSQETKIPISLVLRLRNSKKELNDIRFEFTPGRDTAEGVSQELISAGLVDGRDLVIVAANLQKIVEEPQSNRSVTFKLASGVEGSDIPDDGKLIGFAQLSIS
MET(Y1235D), sequence (P08581 whole entry Y1235D): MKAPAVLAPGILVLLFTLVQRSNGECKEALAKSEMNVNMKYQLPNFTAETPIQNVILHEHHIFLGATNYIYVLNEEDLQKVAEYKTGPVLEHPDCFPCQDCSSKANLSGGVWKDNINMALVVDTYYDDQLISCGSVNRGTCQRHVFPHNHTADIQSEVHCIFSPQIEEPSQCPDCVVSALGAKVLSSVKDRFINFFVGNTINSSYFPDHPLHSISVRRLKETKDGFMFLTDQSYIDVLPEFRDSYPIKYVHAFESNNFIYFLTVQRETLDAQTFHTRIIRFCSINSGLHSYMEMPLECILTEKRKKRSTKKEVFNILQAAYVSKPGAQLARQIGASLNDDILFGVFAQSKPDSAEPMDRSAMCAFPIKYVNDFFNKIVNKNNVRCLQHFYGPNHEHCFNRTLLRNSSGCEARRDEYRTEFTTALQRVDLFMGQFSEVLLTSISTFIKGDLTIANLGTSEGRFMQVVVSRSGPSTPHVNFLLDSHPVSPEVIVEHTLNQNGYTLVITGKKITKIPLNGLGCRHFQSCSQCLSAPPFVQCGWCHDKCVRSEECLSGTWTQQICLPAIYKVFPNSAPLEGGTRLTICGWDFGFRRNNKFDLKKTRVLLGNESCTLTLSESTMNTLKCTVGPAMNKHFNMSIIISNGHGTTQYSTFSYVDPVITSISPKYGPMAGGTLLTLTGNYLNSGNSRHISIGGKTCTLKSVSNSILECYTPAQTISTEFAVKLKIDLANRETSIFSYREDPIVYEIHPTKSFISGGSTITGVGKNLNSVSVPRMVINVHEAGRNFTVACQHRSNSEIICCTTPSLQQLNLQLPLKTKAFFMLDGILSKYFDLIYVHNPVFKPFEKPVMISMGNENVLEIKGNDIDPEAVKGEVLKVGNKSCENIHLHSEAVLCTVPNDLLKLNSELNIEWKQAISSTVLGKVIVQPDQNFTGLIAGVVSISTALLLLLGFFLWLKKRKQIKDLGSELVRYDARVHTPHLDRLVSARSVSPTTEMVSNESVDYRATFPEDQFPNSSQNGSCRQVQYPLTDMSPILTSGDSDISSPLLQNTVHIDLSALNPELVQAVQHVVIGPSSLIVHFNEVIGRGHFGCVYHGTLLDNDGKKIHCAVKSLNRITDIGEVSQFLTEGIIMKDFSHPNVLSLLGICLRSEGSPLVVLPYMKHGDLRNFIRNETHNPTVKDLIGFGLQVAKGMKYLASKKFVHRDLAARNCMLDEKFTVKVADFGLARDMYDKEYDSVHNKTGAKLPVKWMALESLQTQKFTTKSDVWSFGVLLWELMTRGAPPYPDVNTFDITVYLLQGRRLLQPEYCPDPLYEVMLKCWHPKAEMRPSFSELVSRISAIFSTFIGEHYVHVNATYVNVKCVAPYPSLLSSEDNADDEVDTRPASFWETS
PKMYT1, sequence (Q99640 whole entry): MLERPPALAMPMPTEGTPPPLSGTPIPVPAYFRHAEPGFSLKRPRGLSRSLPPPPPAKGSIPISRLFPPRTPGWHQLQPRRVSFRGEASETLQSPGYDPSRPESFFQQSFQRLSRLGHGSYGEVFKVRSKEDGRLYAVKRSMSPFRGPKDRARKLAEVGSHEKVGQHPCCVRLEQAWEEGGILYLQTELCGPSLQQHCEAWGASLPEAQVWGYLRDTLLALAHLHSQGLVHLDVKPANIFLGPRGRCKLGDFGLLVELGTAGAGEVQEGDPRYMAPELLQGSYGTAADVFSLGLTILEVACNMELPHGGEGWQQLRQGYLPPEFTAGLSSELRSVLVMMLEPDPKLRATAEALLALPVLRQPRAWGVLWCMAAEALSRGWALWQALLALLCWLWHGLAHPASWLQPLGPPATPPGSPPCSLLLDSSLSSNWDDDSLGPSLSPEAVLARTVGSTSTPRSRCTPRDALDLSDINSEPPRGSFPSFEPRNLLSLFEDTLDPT

Compound CC#CC(=O)N1CCC[C@H]1c1nc(-c2ccc(C(=O)Nc3ccccn3)cc2)c2c(N)nccn12 [Acalabrutinib] has a remaining binding at 0.3 µM [1, 24] of 93%, a remaining binding at 0.3 µM [2, 24] of 90% and a remaining binding at 0.3 µM [3, 24] of 96%. For the same compound, the remaining binding at 0.3 µM [4, 24] was 84%, the remaining binding at 0.3 µM [5, 24] was 93% and the remaining binding at 0.3 µM [6, 24] was 92%. The remaining binding at 0.3 µM [7, 24] was 96%, the remaining binding at 0.3 µM [8, 24] was 94% and the remaining binding at 0.3 µM [9, 24] was 96%. The remaining binding at 0.3 µM [10, 24] was 96%, the remaining binding at 0.3 µM [11, 24] was 95% and the remaining binding at 0.3 µM [12, 24] was 66%. The remaining binding at 0.3 µM [13, 24] was 97%, the remaining binding at 0.3 µM [14, 24] was 82% and the remaining binding at 0.3 µM [15, 24] was 87%. For the same compound, the remaining binding at 0.3 µM [16, 24] was 82%, the remaining binding at 0.3 µM [17, 24] was 85% and the remaining binding at 0.3 µM [18, 24] was 86%. The remaining binding at 0.3 µM [19, 24] was 91%, the remaining binding at 0.3 µM [20, 24] was 94% and the remaining binding at 0.3 µM [21, 24] was 58%.
C=CC(=O)N1CCC[C@@H](n2nc(-c3ccc(Oc4ccccc4)cc3)c3c(N)ncnc32)C1 [Ibrutinib] gave a remaining binding at 0.3 µM [22, 25] of 90%, a remaining binding at 0.3 µM [11, 25] of 74% and a remaining binding at 0.3 µM [23, 25] of 92%. The remaining binding at 0.3 µM [17, 25] was 31%.
CC#CC(=O)N1CC[C@@H](n2c(=O)n(-c3ccc(Oc4ccccc4)cc3)c3c(N)ncnc32)C1 [Tirabrutinib] was tested, and the remaining binding at 0.3 µM [22, 26] was 77%, the remaining binding at 0.3 µM [9, 26] was 100% and the remaining binding at 0.3 µM [12, 26] was 91%.
In the case of C=CC(=O)N1CCC([C@@H]2CCNc3c(C(N)=O)c(-c4ccc(Oc5ccccc5)cc4)nn32)CC1 [Zanubrutinib], the remaining binding at 0.3 µM [1, 27] is reported as 80%, the remaining binding at 0.3 µM [2, 27] is reported as 85% and the remaining binding at 0.3 µM [3, 27] is reported as 100%. For the same compound, the remaining binding at 0.3 µM [4, 27] was 98%, the remaining binding at 0.3 µM [5, 27] was 90% and the remaining binding at 0.3 µM [6, 27] was 100%. The remaining binding at 0.3 µM [7, 27] was 63%, the remaining binding at 0.3 µM [8, 27] was 81% and the remaining binding at 0.3 µM [10, 27] was 99%. It also gave a remaining binding at 0.3 µM [13, 27] of 98%, a remaining binding at 0.3 µM [14, 27] of 100% and a remaining binding at 0.3 µM [23, 27] of 88%. It also gave a remaining binding at 0.3 µM [15, 27] of 82%, a remaining binding at 0.3 µM [16, 27] of 96% and a remaining binding at 0.3 µM [18, 27] of 88%. The remaining binding at 0.3 µM [19, 27] was 82%, the remaining binding at 0.3 µM [20, 27] was 90% and the remaining binding at 0.3 µM [21, 27] was 100%.

Reference: publication PMC10004634 (PLOS ONE, 2023)
